In patent US20260262643A1, “HERBICIDAL BENZOXAZINES” (FMC CORPORATION, priority 2022, published 2026):

Experiments:
[1] = system: soybean; assay: Test C preemergence; type: in vivo, Glycine max
In short: (§1)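 Seeds in loam–sand blend received preemergence directed soil spray of test chemicals in non-phytotoxic solvent with surfactant; postemergence treatment was applied at one- to two-leaf stage (2–10 cm). After 10 days in greenhouse, injury rated visually versus untreated controls, 0 (no effect) to 100 (complete control).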

[2] = system: ducksalad; assay: Test D flooded paddy test; type: in vivo, Heteranthera limosa; conditions: 250 g ai/ha, applied to paddy water, visual rating after 13 to 14 days, scale 0 to 100 (0 no effect, 100 complete control)
In short: (§2)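 Plants grown to the 2-leaf stage; pots flooded to 3 cm above soil at treatment and held at that depth throughout. Test compounds applied directly to the paddy water. After 13 to 14 days in a greenhouse, response was rated visually versus controls on a 0 (no effect) to 100 (complete control) scale.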

[3] = system: blackgrass; assay: Test C postemergence; type: in vivo, Alopecurus myosuroides; conditions: 10 days, 0 to 100 scale (0 no effect, 100 complete control)
In short: as §1

[4] = system: soybean; assay: Test C postemergence; type: in vivo, Glycine max; conditions: Postemergence, 125 g ai/ha; 0 to 100 scale (0 no effect, 100 complete control), 10 days
In short: as §1

[5] = system: oat, wild; assay: Test C postemergence; type: in vivo, Avena fatua; conditions: 10 days, 0 to 100 scale (0 no effect, 100 complete control)
In short: as §1

[6] = system: green foxtail; assay: Test C postemergence; type: in vivo, Setaria viridis; conditions: 10 days, 0 to 100 scale (0 no effect, 100 complete control)
In short: as §1

[7] = system: barnyardgrass; assay: Test C preemergence; type: in vivo, Echinochloa crusgalli
In short: as §1

[8] = system: kochia; assay: Test C postemergence; type: in vivo, Bassia scoparia; conditions: 10 days, 0 to 100 scale (0 no effect, 100 complete control)
In short: as §1

[9] = system: oat, wild; assay: Test C preemergence; type: in vivo, Avena fatua
In short: as §1

[10] = system: kochia; assay: Test C preemergence; type: in vivo, Bassia scoparia
In short: as §1

[11] = system: green foxtail; assay: Test C preemergence; type: in vivo, Setaria viridis
In short: as §1

[12] = system: pigweed, palmer; assay: Test C postemergence; type: in vivo, Amaranthus palmeri; conditions: 10 days, 0 to 100 scale (0 no effect, 100 complete control)
In short: as §1

[13] = system: galium; assay: Test C postemergence; type: in vivo, Galium aparine; conditions: 10 days, 0 to 100 scale (0 no effect, 100 complete control)
In short: as §1

[14] = system: rice; assay: Test D flooded paddy test; type: in vivo, Oryza sativa; conditions: 250 g ai/ha, applied to paddy water, visual rating after 13 to 14 days, scale 0 to 100 (0 no effect, 100 complete control)
In short: as §2

[15] = system: sedge, umbrella; assay: Test D flooded paddy test; type: in vivo, Cyperus difformis; conditions: 250 g ai/ha, applied to paddy water, visual rating after 13 to 14 days, scale 0 to 100 (0 no effect, 100 complete control)
In short: as §2

[16] = system: corn; assay: Test C postemergence; type: in vivo, Zea mays; conditions: 10 days, 0 to 100 scale (0 no effect, 100 complete control)
In short: as §1

[17] = system: wheat; assay: Test C postemergence; type: in vivo, Triticum aestivum; conditions: Postemergence, 125 g ai/ha; 0 to 100 scale (0 no effect, 100 complete control), 10 days
In short: as §1

[18] = system: barnyardgrass; assay: Test D flooded paddy test; type: in vivo, Echinochloa crus-galli; conditions: 250 g ai/ha, applied to paddy water, visual rating after 13 to 14 days, scale 0 to 100 (0 no effect, 100 complete control)
In short: as §2

[19] = system: blackgrass; assay: Test C preemergence; type: in vivo, Alopecurus myosuroides
In short: as §1

[20] = system: corn; assay: Test C preemergence; type: in vivo, Zea mays
In short: as §1

[21] = system: horseweed; assay: Test C postemergence; type: in vivo, Erigeron canadensis; conditions: 10 days, 0 to 100 scale (0 no effect, 100 complete control)
In short: as §1

[22] = system: ragweed; assay: Test C postemergence; type: in vivo, Ambrosia artemisiifolia; conditions: Postemergence, 125 g ai/ha; 0 to 100 scale (0 no effect, 100 complete control), 10 days
In short: as §1

[23] = system: pigweed, palmer; assay: Test C preemergence; type: in vivo, Amaranthus palmeri
In short: as §1

[24] = system: barnyardgrass; assay: Test C postemergence; type: in vivo, Echinochloa crusgalli; conditions: 10 days, 0 to 100 scale (0 no effect, 100 complete control)
In short: as §1

[25] = system: ryegrass, Italian; assay: Test C postemergence; type: in vivo, Lolium multiflorum; conditions: Postemergence, 125 g ai/ha; 0 to 100 scale (0 no effect, 100 complete control), 10 days
In short: as §1

[26] = system: ragweed; assay: Test C preemergence; type: in vivo, Ambrosia artemisiifolia
In short: as §1

[27] = system: wheat; assay: Test C preemergence; type: in vivo, Triticum aestivum
In short: as §1

[28] = system: ryegrass, Italian; assay: Test C preemergence; type: in vivo, Lolium multiflorum
In short: as §1

[29] = 500 g ai/ha, preemergence, 0 to 100 scale (0 no effect, 100 complete control)
[30] = Preemergence, 125 g ai/ha, 0 to 100 scale, 0 no effect, 100 complete control

## COC[C@H]1CN(C(=O)c2cc(-n3cnc(C(C)C)n3)cc3c2OCCO3)c2cccc(Cl)c2O1 [Compound 395]
[1]; [29]
  Soybean plant response rating: 100
[1]; [30]
  Plant response rating, Soybean: 70
[2]
  Plant response rating, Ducksalad (Flood): 0
[3]; 500 g ai/ha, postemergence
  Plant response rating, Blackgrass: 90
[3]; Postemergence, 125 g ai/ha
  Plant response rating, Blackgrass: 40
[4]
  Plant response rating, Soybean: 100
[5]; 500 g ai/ha, postemergence
  Plant response rating, Oat, Wild: 60
[5]; Postemergence, 125 g ai/ha
  Plant response rating, Oat, Wild: 50
[6]; 500 g ai/ha, postemergence
  Plant response rating, Foxtail, Green: 80
[6]; Postemergence, 125 g ai/ha
  Plant response rating, Foxtail, Green: 70
[7]; [29]
  Barnyardgrass plant response rating: 100
[7]; [30]
  Plant response rating, Barnyardgrass: 80
[8]; 500 g ai/ha, postemergence
  Plant response rating, Kochia: 100
[8]; Postemergence, 125 g ai/ha
  Plant response rating, Kochia: 90
[9]; [29]
  Oat, Wild plant response rating: 90
[9]; [30]
  Plant response rating, Oat, Wild: 50
[10]; [29]
  Kochia plant response rating: 100
[10]; [30]
  Plant response rating, Kochia: 100
[11]; [29]
  Foxtail, Green plant response rating: 100
[11]; [30]
  Plant response rating, Foxtail, Green: 100
[12]; 500 g ai/ha, postemergence
  Plant response rating, Pigweed, Palmer: 100
[12]; Postemergence, 125 g ai/ha
  Plant response rating, Pigweed, Palmer: 90
[13]; 500 g ai/ha, postemergence
  Plant response rating, Galium: 100
[13]; Postemergence, 125 g ai/ha
  Plant response rating, Galium: 100
[14]
  Plant response rating, Rice (Flood): 0
[15]
  Plant response rating, Sedge, Umbrella (Flood): 0
[16]; 500 g ai/ha, postemergence
  Plant response rating, Corn: 90
[16]; Postemergence, 125 g ai/ha
  Plant response rating, Corn: 70
[17]
  Plant response rating, Wheat: 40
[18]
  Plant response rating, Barnyardgrass (Flood): 0
[19]; [29]
  Blackgrass plant response rating: 90
[19]; [30]
  Plant response rating, Blackgrass: 50
[20]; [29]
  Corn plant response rating: 50
[20]; [30]
  Plant response rating, Corn: 30
[21]; 500 g ai/ha, postemergence
  Plant response rating, Horseweed: 60
[21]; Postemergence, 125 g ai/ha
  Plant response rating, Horseweed: 50
[22]
  Plant response rating, Ragweed: 70
[23]; [29]
  Pigweed, Palmer plant response rating: 100
[23]; [30]
  Plant response rating, Pigweed, Palmer: 100
[24]; 500 g ai/ha, postemergence
  Plant response rating, Barnyardgrass: 70
[24]; Postemergence, 125 g ai/ha
  Plant response rating, Barnyardgrass: 40
[25]
  Plant response rating, Ryegrass, Italian: 60
[26]; [29]
  Ragweed plant response rating: 90
[26]; [30]
  Plant response rating, Ragweed: 90
[27]; [29]
  Wheat plant response rating: 80
[27]; [30]
  Plant response rating, Wheat: 30
[28]; [29]
  Ryegrass, Italian plant response rating: 90
[28]; [30]
  Plant response rating, Ryegrass, Italian: 80
